In patent US20160051542A1 (CHANRX CORPORATION, priority 2013, published 2016):

Legend:
[1] = Daily dosing for 7 days in four patients (Example 4); format: in vivo, human; conditions: 50, 100 and 150 mg daily, all patients
[2] = Daily dosing for 11 consecutive days, PK and hemodynamics (Example 2); format: in vivo, human
[3] = Adverse events in the single dose AF/AFL study (Example 1); format: in vivo, human
From the text: (§1) The vanoxerine or identical appearing placebo was randomly assigned and administered in a double-blinded fashion.

[4] = Preliminary studies of daily use over 7, 10 and 14 days; format: in vivo; conditions: 75, 100, 125 and 150 mg a day over 7, 10 and 14 days
From the text: However, control and prevention of events of cardiac arrhythmia are important to these patients to prevent future re-occurrences and the deleterious effects and morbidity.

[5] = Daily dosing for 14 days in healthy patients (Example 3); format: in vivo, human; conditions: 25, 75 and 125 mg daily for 14 days, meal 15 minutes prior to dosing
Description: A standardized meal was served 15 minutes prior to each dosing.

[6] = human, in vivo
From the text: Furthermore, steady state plasma levels are achieved within 3 days of oral dosing in some studies and up to 14 days in other studies. In human studies, the typical time is between about 3-11 days for reaching steady state status. […] This provides for an opportunity to achieve steady state plasma levels for restoration or maintenance of normal sinus rhythm in mammals.

[7] = test system: recent onset symptomatic AF/AFL; assay: Randomised double-blind single oral dose study: conversion of recent onset symptomatic AF/AFL to sinus rhythm (Example 1); format: in vivo, human; conditions: for Conversion of Atrial Flutter, %: pure atrial flutter subjects (N 4), any time within 24 hours
Description: as §1
Inclusion criteria included: male or female over the age of […], symptomatic AF/AFL for more than 3 hours and less than 7 days, as dated by symptoms, and adherence to local clinical standards or the […] practice guidelines for AF/AFL regarding thromboembolic event prevention and treatment
Exclusion Criteria Included: • (a) Systolic blood pressure <100 mmHG, HR <50 bpm • (b) Average QTcF >440 ms, […] >140 ms • (c) Paced atrial or ventricular rhythm • (d) Serum potassium <3.5 meq/L • (e) History of receiving another Class 1 or Class III antiarrhythmic drug within 3 days of randomization, amiodarone (oral or IV) within 3 months • (f) Acute coronary syndrome within 30 days prior to randomization • (g) Aortic stenosis with AVA ≦1.0 cm^2 • (h) Mitral stenosis with MVA of <1.5 cm^2 • (i) Acute pulmonary edema/embolism • (j) Stroke within 30 days or TIA within 48 hours • (k) Untreated hyperthyroidism • (l) Acute pericarditis • (m) Postoperative AF/AFL within 7 days • (n) History of failed Direct current cardioversion • (o) History of polymorphic ventricular tachycardia (e.g. Torsade de Pointes) • (p) History or family history of long QT syndrome • (q) History of ventricular tachycardia requiring drug or device therapy • (r) History of NYHA Heart Failure Class III or IV or recent (within 1 month) onset of heart failure not related to rapid ventricular response AF • (s) Ejection fraction of 35% or less • (t) History of prior ablation therapy for cardiac arrhythmias
4-Hour Efficacy Endpoints: • (a) the proportion of subjects who convert to sinus rhythm for at least 1 minute through 4 hours after start of study drug. • (b) the proportion of subjects in sinus rhythm at 4 hours after start of study drug • (c) time to restoration of sinus rhythm within 4 hours
24-Hour Efficacy Endpoints • (a) the proportion of subjects who convert to sinus rhythm for at least 1 minute through 24 hours after start of study drug. • (b) the proportion of subjects in sinus rhythm at 24 hours after start of study drug • (c) time to restoration of sinus rhythm within 24 hours
Statistical Considerations: • (a) Placebo subjects in all dose cohorts pooled to create one placebo dose group for comparison to the active dose groups • (b) each dose group compared separately with placebo • (c) Fisher's exact tests for difference in proportions between each dose level and placebo • (d) Time to restoration tested using the Kaplan-Meier method with difference in survivor functions; Log-Rank test used to compare each dose level with placebo • (e) No correction for multiple comparisons among dose groups.

## Fc1ccc(C(OCCN2CCN(CCCc3ccccc3)CC2)c2ccc(F)cc2)cc1 [vanoxerine, 1-[2-[bis(4-fluorophenyl)methoxy]ethyl]-4-(3-phenylpropyl)piperazine]
[1]
  Time to steady state levels: within one week
[2]; 25 mg daily
  Plasma levels: not detectable after 8 hours
[2]; 50, 75 and 100 mg doses
  PK linearity: linear and dose proportional
  Plasma levels: detectable at 24 hours
  Time at which steady state was reached: ≤ 8 days
[2]; 75 and 100 mg doses
  Heart rate and systolic blood pressure: increased slightly in most subjects
[3]; 200 mg
  Number of adverse events reported: 8 AEs
[3]; 200 mg (22 subjects)
  Subjects reporting adverse events, N (%): 4 (18%) subjects
[3]; 300 mg
  Number of adverse events reported: 12 AEs
[3]; 300 mg (25 subjects)
  Subjects reporting adverse events, N (%): 7 (28%) subjects
[3]; 400 mg
  Number of adverse events reported: 23 AEs
[3]; 400 mg (25 subjects)
  Subjects reporting adverse events, N (%): 10 (40%) subjects
[3]; 200, 300 and 400 mg single doses
  Tolerability: well tolerated at all doses
[3]; all doses
  1:1 AFL post dose: No 1:1 AFL seen post dose in any subject
[3]; all doses, neither related to the study drug
  Serious adverse events, all doses: two
[3]; single doses 200-400 mg
  Proarrhythmia: absence of proarrhythmia
[4]
  Heart rate and systolic blood pressure: may lead to increased heart rate and systolic blood pressure
[5]
  Adverse events: No significant adverse events
[6]
  Time for reaching steady state status: 3 to 11 days
[7]; 200 mg single dose, 0-4 hr
  Percent conversion to sinus rhythm: 18%
[7]; 200 mg single dose, 0-8 hr
  Percent conversion to sinus rhythm: 45%
[7]; 200 mg single dose, 0-24 hr
  Percent conversion to sinus rhythm: 59%
[7]; 200 mg
  Conversion of Atrial Flutter, %: 50%
[7]; 300 mg single dose, 0-4 hr
  Percent conversion to sinus rhythm: 40%
[7]; 300 mg single dose, 0-8 hr
  Percent conversion to sinus rhythm: 52%
[7]; 300 mg single dose, 0-24 hr
  Percent conversion to sinus rhythm: 64%
[7]; 300 mg
  Conversion of Atrial Flutter, %: 75%
[7]; 400 mg single dose, 0-4 hr
  Percent conversion to sinus rhythm: 52%
[7]; 400 mg single dose, 0-8 hr
  Percent conversion to sinus rhythm: 76%
[7]; 400 mg single dose, 0-24 hr
  Percent conversion to sinus rhythm: 84%
[7]; 400 mg
  Conversion of Atrial Flutter, %: 75%
[7]; all doses of vanoxerine, at about 7 hours
  Conversion to sinus rhythm: greater than 40%
[7]; all doses, at 12 hours
  Conversion to sinus rhythm: greater than 50%
[7]; all doses, at about 16 hours
  Conversion to sinus rhythm: ~60%
